Patent US9757399B2, “Butyrylcholinesterase inhibitors” (priority 2006, dated 2017)

What was measured:
[1] = target: T1, butyrylcholinesterase (from horse serum) (Equus caballus, UniProt P81908); experiment: Rates of inactivation of butyrylcholinesterase, Ellman assay; format: biochemical; settings: 100 nM inhibitor, 25° C.
T1 construct: butyrylcholinesterase (from horse serum); purchased Sigma; host or cells: horse serum (natural source)
Description: Acetylcholinesterase (from electric eel), butyrylcholinesterase (from horse serum), DTNB, butyrylthiocholine, acetylthiocholine, and BSA were purchased from Sigma. The dialkyl 2-chlorophenyl (and 4-chlorophenyl) phosphates were solubilized in reagent grade methanol.
Cholinesterase activity measurements were performed essentially according to the method of Ellman (Biochemical Pharmacology 7:88-90, 1961). The composition of the assay mixture was 0.1 M sodium phosphate, pH 7.5, 0.033 M DTNB, 0.001 M MgCl2, and 100 μg/mL of BSA containing appropriate amounts of substrate and inhibitor. Each assay was initiated by the addition of substrate and the activity quantified by measuring the formation of the thionitrobenzoate anion at 412 nm at 37° C. Methanol used to solubilize the dialkyl phenyl phosphates [1% (v/v) final concentration] had no inhibitory effect on either enzyme.
Butyrylcholinesterase was pre-incubated at room temperature with inhibitor in the assay cocktail minus substrate for varying periods of time at 25° C. Substrate was then added and the activity measured as described above. The relative rates of enzyme inactivation were determined by plotting enzyme activity versus time of pre-incubation with inhibitor. Results were expressed as the rate constant for the rate of enzyme inactivation. In the case of AcChase, results were expressed as the % of activity remaining relative to the enzyme incubated only with solvents.
. […] In Table 2, BuChase was incubated for increasing periods of time at 25° C. with 100 nM inhibitor then assayed for activity as described above. Rate constants were calculated from a plot of enzyme activity vs. time of inhibitor exposure. […]. Slopes were calculated by linear regression analysis.

butyrylcholinesterase = target: T2, butyrylcholinesterase (Equus caballus, UniProt P81908); experiment: Reactivation of inactive butyrylcholinesterase; format: biochemical, horse
T2 construct: butyrylcholinesterase (from horse serum); purchased Sigma; host or cells: horse serum (natural source)
T2 sequence (P81908 whole entry): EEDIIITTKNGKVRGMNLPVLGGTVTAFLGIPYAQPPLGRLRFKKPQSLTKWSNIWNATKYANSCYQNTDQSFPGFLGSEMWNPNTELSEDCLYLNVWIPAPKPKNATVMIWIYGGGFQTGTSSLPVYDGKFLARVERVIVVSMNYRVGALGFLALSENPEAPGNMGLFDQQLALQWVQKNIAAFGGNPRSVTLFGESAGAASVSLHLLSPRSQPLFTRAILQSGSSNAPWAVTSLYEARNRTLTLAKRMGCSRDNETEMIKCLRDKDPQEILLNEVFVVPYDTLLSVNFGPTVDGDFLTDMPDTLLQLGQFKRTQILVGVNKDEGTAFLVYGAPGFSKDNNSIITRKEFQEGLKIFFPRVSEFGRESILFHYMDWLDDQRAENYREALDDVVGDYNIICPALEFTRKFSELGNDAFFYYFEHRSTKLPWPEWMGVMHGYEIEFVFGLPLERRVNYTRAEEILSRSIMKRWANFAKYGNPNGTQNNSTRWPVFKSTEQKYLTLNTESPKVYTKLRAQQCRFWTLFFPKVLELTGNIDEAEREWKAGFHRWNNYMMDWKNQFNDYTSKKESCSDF
Description: BuChase was incubated with excess di-butyl 2-chlorophenyl phosphate for 60 min at 4° C. The excess phosphate was removed using a desalting column. The inactivated BuChase was incubated at 4° C. for various periods of time and then assayed for activity. […]

BuChase = target: T3, BuChase (Equus caballus, UniProt P81908); experiment: MALDI-TOF of tryptic peptides of inhibitor-treated BuChase
T3 construct: butyrylcholinesterase (from horse serum); purchased Sigma; host or cells: horse serum (natural source)
T3 sequence (P81908 whole entry): as above
Description: BuChase was incubated with di-n-butyl-2-chlorophenyl phosphate. Excess inhibitor was removed and the enzyme was digested with trypsin. The tryptic peptides were then analyzed by MALDI-TOF. Unmodified peptide containing the active site serine (MW 2198.86) and modified peptide (MW 2390.9060) can be seen. […] Irreversible inhibitors usually covalently modify an enzyme, and inhibition cannot therefore be reversed.

trypsin = experiment: Trypsin activity (BAEE hydrolysis); format: biochemical; settings: 10 μM, 60 minutes at 25° C.
Description: The effect of DB2ClPP (di-n-butyl 2-chlorophenyl phosphate) on the activity of trypsin was assayed. Trypsin was incubated with solvent, 10 μM DB2CPP, or 10 μM DIFP (a known inhibitor of trypsin) for 60 minutes at 25° C. to determine any inhibitory effect of DB2CPP on enzymatic activity. Enzyme activity is given as nmoles of BAEE hydrolyzed per minute at 25° C. Data shown are the mean of three replicates ±SEM. (FIG. 3)

T1 sequence (P81908 whole entry): as above

Compound: CCCCOP(=O)(OCCCC)Oc1ccccc1Cl [DB2ClPP, Di-n-butyl 2-chlorophenyl phosphate]
- k, rate constant of inactivation of butyrylcholinesterase ± S.E.M [1]: 64.76 ± 3.0 min^−1 × 10^−2
- % Remaining Activity (butyrylcholinesterase; 0 hours at 4° C. after removal of excess inhibitor): 0.6%
- % Remaining Activity (butyrylcholinesterase; 3.5 hours at 4° C. after removal of excess inhibitor): 0.6%
- % Remaining Activity (butyrylcholinesterase; 7 hours at 4° C. after removal of excess inhibitor): 0.8%
- % Remaining Activity (butyrylcholinesterase; 24 hours at 4° C. after removal of excess inhibitor): 1.1%
- reactivation of inactivated BuChase (butyrylcholinesterase; over 24 hours at 4° C.): no significant reactivation
- type of inhibition from covalent modification of active site serine peptide (FIG. 12) (BuChase): likely an irreversible inhibitor
- effect on trypsin activity (FIG. 3) (trypsin): none of the above mentioned enzymes were affected
